The results in this text go back to PMC11313435, “Identification of Antioxidant Methyl Derivatives of Ortho-Carbonyl Hydroquinones That Reduce Caco-2 Cell Energetic Metabolism and Alpha-Glucosidase Activity” (International Journal of Molecular Sciences, 2024).

Data set [1] addresses α-glucosidase. The data set can be described thus: α-glucosidase inhibitory activity (p-nitrophenyl α-D-glucopyranoside substrate). In kind it is biochemical. To be noted: for IC50: pH 6.9, 37 °C, 15 min, mean ± SD of three experiments, read-out: Inhibition of α-Glucosidase Activity IC50; for pIC50 (α-glucosidase): pIC50 = −log[IC50], Figure 2A.
Description: The inhibition of α-glucosidase was determined following a previous method [62] using p-nitrophenyl α-D-glucopyranoside as a substrate. The reaction mixture contained 160 µL of 0.1 M sodium phosphate buffer (pH = 6.9), 5 µL of enzyme (5.46 U/mL), and polyphenolic extract (0.17–1.36 µg/mL). After the pre-incubation of the reaction mixture on ice for 5 min, the enzyme reaction was started by adding 5 µL of 25 mM p-nitrophenyl α-D-glucopyranoside into this mixture. The reaction was incubated for 15 min at 37 °C. Then, 80 µL of 0.2 M sodium carbonate was added. The absorbance was measured at 405 nm in a microplate reader (Biotek ELx808, Agilent, Santa Clara, CA, USA). Enzyme inhibition was calculated using the following equation: % inhibition = (A0 − As)/A0 × 100, where A0 is the absorbance of the control (blank, without extract) and As is the absorbance in presence of the extract. IC50 values denote the µg GAE/mL required to inhibit the enzyme by 50%.
A short description of data set [2]: ORAC assay (oxygen radical absorbance capacity, ORAC-FL). To be noted: radical scavenging against peroxyl radicals; mean ± SD of three experiments. On the procedure:
The radical-scavenging activities of the hydroquinone series against peroxyl radicals were assessed (ORAC assays). […] Similarly, for the series with the gem-diethyl group on ring B (compounds 6–10), compound 6 presents the highest antioxidant capacity (7.0 + 0.3 mol TE/mol compound). […] The replacement of the gem-dimethyl with the gem-diethyl group also decreases the antioxidant capacity.
The antioxidant activity was determined by ORAC (oxygen radical absorbance capacity) assays. Briefly, the antioxidant capacity for ORAC-FL was estimated by measuring the changes in fluorescence after 120 min of reaction with the radical. Assays were performed using a 96-well microplate in a Synergy H1 hybrid multi-mode microplate reader (Biotek, Winooski, VT, USA), and the results were expressed as µmol Trolox 100 g^−1 DW. Three replicates were accomplished for each analysis.

For data set [3], the system named is Caco-2 cells. The data set can be described thus: Extracellular acidification rate and oxygen consumption rate in real time (Seahorse XFe96). It counts as cell-based, human. Particulars: Caco-2, 100 µM; for Effect on max OCR: 24 h (Figures 3C, 4A-D); for Effect on glycolysis (ECAR) / Effect on glycolysis, cluster in dendrogram / Effect on basal mitochondrial OCR: 24 h; for Effect on glycolysis (ECAR): compared to control (Figures 3B, 4E-H); for Effect on glycolysis, cluster in dendrogram: clusters of Figure 3C; for Effect on basal mitochondrial OCR: compared to control (Figures 3B, 4A-D). On the procedure: We previously described how ortho-carbonyl hydroquinone scaffolds inhibit oxidative phosphorylation in breast cancer cells. Since the reduction in glucose utilization and metabolism in intestinal cells is a promising target for T2DM treatment, the effect of these compounds on mitochondrial respiration and glycolysis in Caco-2 cells was determined. […] The effect of ortho-carbonyl hydroquinone series (100 µM) on five parameters of mitochondrial respiration (basal OCR, max OCR, spare capacity, ATP-linked OCR, and proton leak-driven OCR), and two of glycolysis (glycolytic capacity and glycolysis), is represented in a dendrogram (Figure 3C). […] OCR: compounds 1, 6, 7, and 9. […] No correlations between OCR and ECAR parameters, α-glucosidase activity inhibition, or ORAC were observed (Supplementary Figure S1).
In contrast, compound 10 increases the proton leak-OCR and decreases max OCR (Figure 4A–D).
To analyze the extracellular acidification rate (ECAR), Caco-2 cells (10,000 cells/well) were seeded on XFe96 V3-PS multi-well plates and kept for 24 h at 37 °C in 5% CO2 with a DMEM culture medium supplemented with FBS. After 24 h, the cells were stimulated by compounds at 100 μM for 24 h. Then, the culture medium was replaced with assay media (unbuffered DMEM without red phenol, with 4 mM glutamine and 10 mM glucose, pH = 7.4) 1 h before the assay. Glycolysis was evaluated by the sequential injection of 10 mM glucose, 1 µM oligomycin, and 100 mM 2-deoxy-D-glucose (2-DG), and ECAR was analyzed using specific excitation and emission wavelengths of protons (470/530 nm). To study the mitochondrial function, the sequential injection of 1 μM oligomycin, 250 nM FCCP, 1 μM rotenone, and 1 μM antimycin A was added. The oxygen consumption rate (OCR) measurements were made with the specific excitation and emission wavelengths of the fluorescent probes for oxygen (532/650 nm) using a Seahorse XFe96 Analyzer (Seahorse Agilent, USA), and OCR and ECAR data were normalized by protein content/well, which was determined using a BCA kit. Each experiment was performed at least in triplicate. The OCR/ECAR data analysis and dendrograms were performed using XLSTAT software (version 2023.2.1414, Lumivero, New York, NY, USA).

The test system of data set [4] is Caco-2 cells. The data set is described as follows: MTT assay, cell proliferation. In kind it is cell-based, human. Particulars: Caco-2, 24 h treatment, 1-100 µM (Figure 3A). On the procedure: We evaluate the effect of ortho-carbonyl hydroquinones 1–10 on the intestinal Caco-2 cell line at 24 h of treatment.
Caco-2 cells were grown in Dulbecco’s modified Eagle’s Medium/Nutrient Mixture F-12 (D-MEM/F-12), supplemented with 5% fetal bovine serum (FBS), penicillin (100 IU/mL), streptomycin (100 μg/mL), and nonessential amino acid solution 1% (GIBCO, Thermo Fisher Scientific, Grand Island). The culture media contained no exogenous pyruvate supplementation, and the cells were maintained in a humidified atmosphere at 37 °C and 5% CO2.
The cell proliferation was determined using the MTT assay. The cells were incubated in 96-well plates at 7000 cells per well and incubated for 24 h. The cells were treated for 24 h with compounds (1, 5, 10, 30, 50, and 100 μM). After treatment, the culture medium was removed, and the cells were incubated with MTT for 1 h at 37 °C. Finally, 100 μL of DMSO was added and measured by spectrophotometry at 570 nm, as previously described.

Data set [5] deals with Caco-2 cells. The data set can be described thus: Menadione-induced cytosolic (DHE) and mitochondrial (MitoSOX) ROS by flow cytometry. In kind it is cell-based, human. To be noted: Caco-2, 100 and 200 µM for 24 h, then 25 µM menadione 1 h; MitoSOX Red. Here is the method: Using menadione as an ROS inducer, the preventive effect of compounds 5 and 10 on mitochondrial and cytosolic ROS production was evaluated. No changes in the mitochondrial ROS production were observed (Figure 4I).
The mtROS and ROS levels were measured using MitoSOX® Red Mitochondrial Superoxide (Invitrogen, Carlsbad, CA, USA) and Invitrogen™ Dihydroethidium (Hydroethidine, DHE) probes, respectively. The Caco-2 cells were incubated in 12-well plates at 50,000 cells for 24 h. The cells were treated with compounds 5 and 10 at 100 μM and 200 μM for 24 h. Next, the cells were incubated with 25 μM menadione 25 μM for 1 h, and then the cells were washed with PBS and incubated with MitoSOX Red® (5 µM) or DHE (5 μM) for 30 min. Then, they were recollected, and washed, and the fluorescence was detected by flow cytometry according to Urra et al., 2018 [31].

Entries after “also recorded” stand apart in the source; their conditions may differ. Some results are limits rather than exact numbers.

As for `Cc1cc(O)c2c(c1O)C(C)(C)C=CC2=O` [Compound 2, 5,8-Dihydroxy-4,4,6-trimethylnaphthalen-1(4H)-one], in data set [1], the IC50 stood at 140 µM and the “pIC50 (α-glucosidase)” value is recorded as 3.85. Further, the ORAC in data set [2] is recorded as 5.5 ± 0.2 mol TE/mol Compound. Further, in data set [3], the “Effect on max OCR” value is “reduced effect on max OCR”; the “Effect on glycolysis (ECAR)” value is listed as “reduces the glycolysis”; the “Effect on glycolysis, cluster in dendrogram” value (shortened to “Effect on glycolysis, cluster”) is given as “glycolysis inhibitors”.
In the case of `Cc1c(C)c(O)c2c(c1O)C(=O)C=CC2(C)C` [Compound 4, 5,8-Dihydroxy-4,4,6,7-tetramethylnaphthalen-1(4H)-one], in data set [1], the IC50 turned out to be 245 µM and the “pIC50 (α-glucosidase)” value is 3.61. Moreover, in data set [2], the ORAC is on record as 1.05 ± 0.03 mol TE/mol Compound. In data set [3], the “Effect on max OCR” value is on record as “reduced effect on max OCR”; the “Effect on basal mitochondrial OCR” value was “lacking effect on OCR”; the “Effect on glycolysis (ECAR)” value was “increases the glycolysis”; the “Effect on glycolysis, cluster” value is listed as “glycolysis inhibitors”.
With `CC1(C)C=CC(=O)c2c(O)ccc(O)c21` [Compound 1, 5,8-Dihydroxy-4,4-dimethylnaphthalen-1(4H)-one], the “pIC50 (α-glucosidase)” value in data set [1] stood at 3.72. Moreover, in data set [3], the “Effect on max OCR” value is listed as “strong inhibitory effect on max. OCR”; the “Effect on basal mitochondrial OCR” value is on record as “reduces the basal mitoOCR”; the “Effect on glycolysis (ECAR)” value is given as “increases ECAR”; the “Effect on glycolysis, cluster” value was “glycolysis enhancers”.
On to `CCC1(CC)C=CC(=O)c2c(O)c(C)cc(O)c21` [Compound 8, 4,4-Diethyl-5,8-dihydroxy-7-methylnaphthalen-1(4H)-one], for which the melting point was 198.2 °C. For the same compound, in data set [1], the IC50 is 60 µM and the “pIC50 (α-glucosidase)” value is recorded as 4.20. Further, in data set [2], the ORAC is given as 5.9 ± 0.3 mol TE/mol Compound. Moreover, in data set [3], the “Effect on max OCR” value is given as “reduced effect on max OCR”; the “Effect on glycolysis (ECAR)” value is “reduces the glycolysis”; the “Effect on glycolysis, cluster” value was “glycolysis inhibitors”.
Take `CCC1(CC)C=CC(=O)c2c(O)cc(C)c(O)c21` [Compound 7, 4,4-Diethyl-5,8-dihydroxy-6-methylnaphthalen-1(4H)-one]: in data set [1], the IC50 came to 110 µM and the “pIC50 (α-glucosidase)” value was 3.96. The ORAC in data set [2] came out at 7.2 ± 0.4 mol TE/mol Compound. Besides, in data set [3], the “Effect on max OCR” value is on record as “strong inhibitory effect on max. OCR”; the “Effect on basal mitochondrial OCR” value is recorded as “lacking effect on OCR”; the “Effect on glycolysis (ECAR)” value is recorded as “increases the glycolysis”; the “Effect on glycolysis, cluster” value is reported as “glycolysis enhancers”.
In the case of `CCC1(CC)C=CC(=O)c2c(O)ccc(O)c21` [Compound 6, 4,4-Diethyl-5,8-dihydroxynaphthalen-1(4H)-one], the “Effect on MTT reduction” value in data set [4] was “decreased the MTT reduction”. Moreover, in data set [1], the IC50 was found to be 195 µM and the “pIC50 (α-glucosidase)” value came out at 3.71. The ORAC in data set [2] was 7.0 ± 0.3 mol TE/mol Compound. In addition, in data set [3], the “Effect on max OCR” value is “strong inhibitory effect on max. OCR”; the “Effect on basal mitochondrial OCR” value is “reduces the basal mitoOCR”; the “Effect on glycolysis (ECAR)” value is on record as “increases ECAR”; the “Effect on glycolysis, cluster” value is on record as “glycolysis enhancers”.
Compound `Cc1cc(O)c2c(c1O)C(=O)C=CC2(C)C` [Compound 3, 5,8-Dihydroxy-4,4,7-trimethylnaphthalen-1(4H)-one] returned a melting point of 204 °C. In addition, in data set [1], the IC50 is above 500 µM and the “pIC50 (α-glucosidase)” value came to 3.26. In data set [2], the ORAC is listed as 3.9 ± 0.1 mol TE/mol Compound. In addition, in data set [3], the “Effect on max OCR” value was “reduced effect on max OCR”; the “Effect on glycolysis (ECAR)” value is reported as “reduces the glycolysis”; the “Effect on glycolysis, cluster” value is given as “glycolysis inhibitors”.
For the compound `CCC1(CC)C=C(C)C(=O)c2c(O)c(C)c(C)c(O)c21` [Compound 10, 4,4-Diethyl-5,8-dihydroxy-2,6,7-trimethylnaphthalen-1(4H)-one], the “Effect on menadione-induced mitochondrial ROS production” value in data set [5] is recorded as “No changes”. Also, in data set [4], the “Effect on MTT reduction” value is recorded as “significantly increased the MTT reduction”. In addition, in data set [1], the IC50 worked out at 78 µM and the “pIC50 (α-glucosidase)” value is 4.10. In addition, the ORAC in data set [2] amounted to 0.10 ± 0.01 mol TE/mol Compound. The “Effect on proton leak-driven OCR” value in data set [3] (24 h (Figure 4A-D)) is reported as “increases”. Moreover, in data set [3], the “Effect on max OCR” value is reported as “reduced effect on max OCR”; the “Effect on glycolysis (ECAR)” value is listed as “reduces the glycolysis; also recorded: significantly reduce the glycolysis”; the “Effect on glycolysis, cluster” value is given as “glycolysis inhibitors”. Also, the “Effect on max OCR” value in data set [3] (listed as compound 10) was “decreases”.
For the compound `CCC1(CC)C=CC(=O)c2c(O)c(C)c(C)c(O)c21` [Compound 9, 4,4-Diethyl-5,8-dihydroxy-6,7-dimethylnaphthalen-1(4H)-one], the melting point was in the range of 174.9 to 179.8 °C. For the same compound, in data set [1], the half-inhibitory concentration (IC50) was above 500 µM and the “pIC50 (α-glucosidase)” value stood at 3.29. In addition, the ORAC in data set [2] is 0.83 ± 0.03 mol TE/mol Compound. Moreover, in data set [3], the “Effect on max OCR” value is on record as “strong inhibitory effect on max. OCR”; the “Effect on glycolysis (ECAR)” value was “reduces the glycolysis”; the “Effect on glycolysis, cluster” value is “glycolysis enhancers”.
